Results taken from patent US20190346463A1, “COMPOSITIONS AND METHOD FOR DETERMINING INSULIN RESISTANCE USING NON-ESTERIFIED FATTY ACID ANALYSIS” (The Penn State Research Foundation, priority 2016, published 2019).

Test: compartmental model of NEFA trafficking in response to a glucose challenge (frequently sampled intravenous glucose tolerance test, FAs measured by GC-MS)
Format: in vivo
Conditions: greater in IR (p=0.05); mean [95% CI] 55% [14, 76]
Excerpt: In general the present disclosure involves analysis of NEFA trafficking by determining kinetic parameters that include, but are not necessarily limited to, the fractional rate of NEFA appearance (Ra), the rate of NEFA disappearance (kNEFA), threshold for glucose-induced suppression (tG), and IC50 for glucose inhibition of NEFA production (gIC50). Those skilled in the art will recognize that each of these parameters is known and can be determined using a variety of established approaches. In this regard the presence or absence, qualitative and quantitative amounts of, and kinetic parameters for one or more NEFAs in a biological sample can be sample determined using, for example, chromatographic methods, such as column chromatography, including High Performance Liquid Chromatography (HPLC) and gas chromatography, and spectroscopy methods including mass spectrometry, nuclear magnetic resonance spectroscopy, infrared spectroscopy, positron emission tomography and other approaches, such as those described in “A novel minimal model to describe NEFA kinetics following an intravenous glucose challenge” Ray C. Boston, Peter J. Moate, American Journal of Physiology—Regulatory, Integrative and Comparative Physiology Apr 2008, 294 (4) R1140-R1147. […]
This Example reflects an ancillary study. […] Six FAs were measured by GC-MS (myristic, palmitic, palmitoleic, stearic, oleic, and linoleic acids). […]

For `CCCCCCCCCCCCCCCCCC(=O)O` [stearate, stearic acid], the “kNEFA in IR versus healthy subjects” value was 55%.
